Test results from PubChem BioAssay (NCI).
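Assay format: 96-well plates, 48-hour exposure. GI50 = concentration required for 50% inhibition of growth. Definition used: TGI = concentration required for complete inhibition of growth.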

Tests used:
Assay in all cases: NCI tumour cell line growth inhibition, 48 h
[1] = test system: NCI/ADR-RES ovarian
[2] = test system: MCF7 breast
[3] = test system: SF-295 CNS
[4] = test system: SN12C renal
[5] = test system: SK-MEL-5 melanoma
[6] = test system: UACC-257 melanoma
[7] = test system: BT-549 breast
[8] = test system: UO-31 renal
[9] = test system: IGROV1 ovarian
[10] = test system: OVCAR-3 ovarian
[11] = test system: SR leukemia
[12] = test system: SK-MEL-2 melanoma
[13] = test system: HS 578T breast
[14] = test system: ACHN renal
[15] = test system: UACC-62 melanoma
[16] = test system: TK-10 renal
[17] = test system: HCC-2998 colon
[18] = test system: KM12 colon
[19] = test system: PC-3 prostate
[20] = test system: CAKI-1 renal
[21] = test system: M14 melanoma
[22] = test system: HOP-92 NSCLC
[23] = test system: OVCAR-8 ovarian
[24] = test system: RPMI-8226 leukemia
[25] = test system: K-562 leukemia
[26] = test system: MDA-MB-435
[27] = test system: NCI-H226 lung
[28] = test system: NCI-H23 lung
[29] = test system: NCI-H460 lung
[30] = test system: HL-60(TB) leukemia
[31] = test system: A498 renal
[32] = test system: OVCAR-5 ovarian
[33] = test system: SW-620 colon
[34] = test system: HCT-15 colon
[35] = test system: DU-145 prostate
[36] = test system: 786-0 renal
[37] = test system: MOLT-4 leukemia
[38] = test system: CCRF-CEM leukemia
[39] = test system: A549 NSCLC
[40] = test system: MDA-MB-231 breast
[41] = test system: NCI-H522 lung
[42] = test system: SF-539 CNS
[43] = test system: EKVX NSCLC
[44] = test system: SF-268 CNS
[45] = test system: RXF 393 renal
[46] = test system: OVCAR-4 ovarian
[47] = test system: SK-MEL-28 melanoma
[48] = test system: SNB-75 CNS
[49] = test system: U251 CNS
[50] = test system: HOP-62 NSCLC
[51] = test system: HCT-116 colon
[52] = test system: SNB-19 CNS
[53] = test system: HT29 colon
[54] = test system: SK-OV-3 ovarian
[55] = test system: LOX IMVI melanoma
[56] = test system: COLO 205 colon

O=C1C=CC(=O)C(c2cc(-c3ccc(Cl)cc3)nn2-c2ccccc2)=C1
GI50 [1]: 23.4 µM | TGI [1]: 54.7 µM | GI50 [2]: 18.8 µM | TGI [2]: > 100 µM | GI50 [3]: 29.3 µM | TGI [3]: 66.3 µM | GI50 [4]: 23.5 µM | TGI [4]: 46.9 µM | GI50 [5]: 18.3 µM | TGI [5]: 39 µM | GI50 [6]: 29.7 µM | TGI [6]: 71.3 µM | GI50 [7]: 38 µM | TGI [7]: 99.6 µM | GI50 [8]: 38.1 µM | TGI [8]: > 100 µM | GI50 [9]: 35.8 µM | TGI [9]: > 100 µM | GI50 [10]: 24.8 µM | TGI [10]: 54.6 µM | GI50 [11]: 34.4 µM | TGI [11]: > 100 µM | GI50 [12]: 51.3 µM | TGI [12]: > 100 µM | GI50 [13]: 23.7 µM | TGI [13]: 86.3 µM | GI50 [14]: 20.6 µM | TGI [14]: 41.8 µM | GI50 [15]: 16.6 µM | TGI [15]: 30.7 µM | GI50 [16]: 19.3 µM | TGI [16]: 45 µM | GI50 [17]: 18.8 µM | TGI [17]: 34.4 µM | GI50 [18]: 19 µM | TGI [18]: 44.3 µM | GI50 [19]: 17.4 µM | TGI [19]: 41.6 µM | GI50 [20]: 25.8 µM | TGI [20]: 53.5 µM | GI50 [21]: 16.9 µM | TGI [21]: 35.9 µM | GI50 [22]: 23.5 µM | TGI [22]: 67.2 µM | GI50 [23]: 40.5 µM | TGI [23]: > 100 µM | GI50 [24]: 16.1 µM | TGI [24]: 41 µM | GI50 [25]: 31.1 µM | TGI [25]: > 100 µM | GI50 [26]: 20.5 µM | TGI [26]: 46 µM | GI50 [27]: 16.9 µM | TGI [27]: 59.6 µM | GI50 [28]: 17.5 µM | TGI [28]: 42.9 µM | GI50 [29]: 32.2 µM | TGI [29]: > 100 µM | GI50 [30]: 36.2 µM | TGI [30]: > 100 µM | GI50 [31]: 10.7 µM | TGI [31]: 48.9 µM | GI50 [32]: 27.2 µM | TGI [32]: 72.1 µM | GI50 [33]: 32.9 µM | TGI [33]: > 100 µM | GI50 [34]: 30.4 µM | TGI [34]: > 100 µM | GI50 [35]: 25.4 µM | TGI [35]: 91.1 µM | GI50 [36]: 16.9 µM | TGI [36]: 36.9 µM | GI50 [37]: 37.4 µM | TGI [37]: > 100 µM | GI50 [38]: 11.7 µM | TGI [38]: 81.8 µM | GI50 [39]: 21.9 µM | TGI [39]: 55.7 µM | GI50 [40]: 12.2 µM | TGI [40]: 29 µM | GI50 [41]: 25.9 µM | TGI [41]: 71.7 µM | GI50 [42]: 27.1 µM | TGI [42]: 51.1 µM | GI50 [43]: 41.6 µM | TGI [43]: > 100 µM | GI50 [44]: 21 µM | TGI [44]: 50 µM

O=C1C=C(Nc2ccc([N+](=O)[O-])cc2)c2ccccc2C1=O
GI50 [1]: 2.93 µM | TGI [1]: 29.3 µM | GI50 [2]: 2.49 µM | TGI [2]: 13.9 µM | GI50 [45]: 6.6 µM | TGI [45]: 22.5 µM | GI50 [3]: 4.93 µM | TGI [3]: 18 µM | GI50 [4]: 3.92 µM | TGI [4]: 15.1 µM | GI50 [5]: 1.56 µM | TGI [5]: 3.47 µM | GI50 [46]: 2.07 µM | TGI [46]: 11.2 µM | GI50 [6]: 3.14 µM | TGI [6]: 13.8 µM | GI50 [7]: 3.56 µM | TGI [7]: 14.5 µM | GI50 [47]: 3.75 µM | TGI [47]: 16.6 µM | GI50 [48]: 1.19 µM | TGI [48]: 9.91 µM | GI50 [8]: 1.85 µM | TGI [8]: 12.5 µM | GI50 [9]: 5.99 µM | TGI [9]: 20.8 µM | GI50 [10]: 2.07 µM | TGI [10]: 7.03 µM | GI50 [11]: 2.55 µM | TGI [11]: > 100 µM | GI50 [12]: 2.12 µM | TGI [12]: 8.47 µM | GI50 [13]: 1.78 µM | TGI [13]: 9.96 µM | GI50 [14]: 4.3 µM | TGI [14]: 17.7 µM | GI50 [15]: 1.9 µM | TGI [15]: 5.88 µM | GI50 [49]: 3.07 µM | TGI [49]: 12.9 µM | GI50 [17]: 9.09 µM | TGI [17]: 22.4 µM | GI50 [18]: 3.3 µM | TGI [18]: 16.4 µM | GI50 [19]: 3.7 µM | TGI [19]: 47.1 µM | GI50 [20]: 3.87 µM | TGI [20]: 19 µM | GI50 [21]: 3.49 µM | TGI [21]: 16.7 µM | GI50 [50]: 5.69 µM | TGI [50]: 19.6 µM | GI50 [23]: 2.74 µM | TGI [23]: 12.6 µM | GI50 [24]: 3.37 µM | TGI [24]: 22.4 µM | GI50 [25]: 0.569 µM | TGI [25]: 15.3 µM | GI50 [51]: 2.79 µM | TGI [51]: 12.4 µM | GI50 [26]: 0.392 µM | TGI [26]: 1.41 µM | GI50 [27]: 12.6 µM | TGI [27]: 28.1 µM | GI50 [52]: 4.71 µM | TGI [52]: 18.1 µM | GI50 [29]: 4.45 µM | TGI [29]: 17.2 µM | GI50 [30]: 2.67 µM | TGI [30]: 7.19 µM | GI50 [53]: 18.6 µM | TGI [53]: 42.3 µM | GI50 [31]: 1.47 µM | TGI [31]: 6.75 µM | GI50 [32]: 13.3 µM | TGI [32]: 27.5 µM | GI50 [33]: 2.47 µM | TGI [33]: 15.5 µM | GI50 [54]: 11.6 µM | TGI [54]: 27.1 µM | GI50 [34]: 2.42 µM | TGI [34]: 15.4 µM | GI50 [35]: 6.94 µM | TGI [35]: 19.6 µM | GI50 [36]: 11.6 µM | TGI [36]: 33.8 µM | GI50 [37]: 3.55 µM | TGI [37]: 12.7 µM | GI50 [55]: 2.34 µM | TGI [55]: 7.47 µM | GI50 [38]: 3.9 µM | TGI [38]: 26 µM | GI50 [39]: 3.96 µM | TGI [39]: 16.5 µM | GI50 [40]: 1.72 µM | TGI [40]: 13.2 µM | GI50 [56]: 17.4 µM | TGI [56]: 34.8 µM | GI50 [41]: 2.91 µM | TGI [41]: 14.4 µM | GI50 [42]: 3.5 µM | TGI [42]: 14.7 µM | GI50 [44]: 5.39 µM | TGI [44]: 20.6 µM
